Test results from patent publication US8026342B2, “Compositions and methods for binding sphingosine-1-phosphate” (Lpath, Inc., priority 2006, dated 2011).

B1: LT1002: murine anti-S1P monoclonal antibody, IgG1 kappa, from hybridoma clone 306D326.26 (antibody, listed as Mus sp., V domains shown)
VH: QAHLQQSDAELVKPGASVKISCKVSGFIFIDHTIHWMKQRPEQGLEWIGCISPRHDITKYNEMFRGKATLTADKSSTTAYIQVNSLTFEDSAVYFCARGGFYGSTIWFDFWGQGTTLTVS
VL: ETTVTQSPASLSMAIGEKVTIRCITTTDIDDDMNWFQQKPGEPPNLLISEGNILRPGVPSRFSSSGYGTDFLFTIENMLSEDVADYYCLQSDNLPFTFGSGTKLEIK

What was measured:
CNV lesions [1] = assay: CNV animal model of AMD, murine vs humanized mAbs (Example 17); assay type: in vivo, mice; details: for Percent inhibition of lesion size: 14 days post laser
Description: The humanized antibody variants and the murine antibody were compared for their ability to inhibit neo-vascularization in the CNV animal model of AMD as shown in FIG. 13. […] Mice were sacrificed 14 days post laser surgery. Control mice were treated with aqueous buffer (PBS) or an isotype-matched non-specific antibody. Three of the humanized variants inhibited angiogenesis essentially equivalently to the murine antibody as assessed by measurement of CNV area. CNV lesion volumes are represented as means±SEM.
For the induction of CNV, mice were anesthetized with a mixture of ketamine (14 mg/kg) and xylazine (30 mg/kg) in sterile saline administered intraperitoneally at a dose of 5 μL per 20 g of body weight. Their pupils were then dilated with one drop each of ophthalmic tropicamide (0.5%) and phenylephrine (2.5%). An argon green ophthalmic laser (Oculight GL 532 nm, Iridex Corporation, Mountain View, Calif.) coupled to a slit lamp set to deliver a 100 msec pulse at 150 mW with a 50 μm spot size will then be used to rupture Bruch's membrane in three quadrants of the right eye located approximately 50 μm from the optic disc at relative 9, 12 and 3 o'clock positions. The left eye served as uninjured control in all cases.
The morphometric and volumetric CNV lesions were measured as follows. Two weeks after laser induction of CNV, the animals were euthanized by overdose of ketamine-xylazine mixture, then undergo whole body perfusion via cardiac puncture with 6 ml 4% paraformaldehyde in PBS, pH 7.5, (fixative) as previously described (Sengupta et al., 2003). The eyes will then be enucleated, punctured with a 27 g needle 1 mm posterior to the limbus, and immersed in fixative for 1 hr at room temperature, then washed 2× by immersion in PBS for 30 min. The eyes will then be dissected to isolate the posterior segment consisting of the retinal pigment epithelium, the choriocapillaris and the sclera. This tissue was then permeabilized and reacted with rhodamine-conjugated R. communis agglutinin I (Vector Laboratories, Burlingame, Calif.) to detect the CNV lesion as previously described (Sengupta et al., 2003; Sengupta et al., 2005). […]
Captured digital images were evaluated morphometrically using ImageJ software (Research Services Branch, National Institutes of Health, Bethesda, Md.). Images were split into separate RGB channels for analysis of the red and green channels as follows: 1) a calibration for the specific objective and microscope was applied to set the pixel-to-length ratio; 2) a threshold was applied using the Otsu algorithm; 3) images will be made binary; 4) a region-of-interest (ROI) was outlined to include the entire lesion area; 5) a particle analysis was performed to quantify the pixel area above the threshold level within the ROI. […]

CNV lesions [2] = assay: Sonepcizumab dose response in laser CNV model (fluorescein-labeled dextran); assay type: in vivo, mice
Description: Mice (n=10) received a single, bilateral intravitreal injection of escalating doses of sonepcizumab (0.085, 0.85, 1.7 or 5 μg/eye) or a high dose nonspecific (NS) antibody (3.0 μg/eye) one day prior to laser-induced rupture of Bruch's membrane. Fourteen days after laser rupture, mice were anesthetized and perfused with fluorescein-labeled dextran and choroidal flatmounts were prepared for analysis of CNV lesion size.
In this study, the effect of sonepcizumab dose amount and dose interval on CNV inhibition were examined using another validated method of quantifying CNV area in which animals were perfused with fluorescein-labeled dextran just before sacrifice. Sonepcizumab induced a dose-dependent reduction in the area of CNV resulting in a maximal inhibition of approximately 50%, at a dose of 5 μg/eye. This reduction was significant (p<0.0001 compared to non-specific antibody control using an unpaired t-test). In the dosing frequency study, similar efficacy was observed between groups treated with Sonepcizumab at a single timepoint (day 0) or at multiple timepoints (days 0 and 7) over the 14-day study.

[3] = system: VEGF-induced angiogenesis; assay: VEGF-induced angiogenesis in GFR Matrigel plug assay; assay type: in vivo, nu/nu mice; details: 10 mg/kg i.p. every 72 hrs, 12 days
Description: Neovascularization in vivo was performed using the GFR Matrigel plug assay as described in Staton, et al., Int J Exp Pathol, 2004. 85(5): p. 233-48. 4-6 week old nu/nu mice were injected in the left flank with 500 uL of ice-cold GFR Matrigel. The GFR Matrigel was injected either alone (control) or after addition of 10 ug/mL VEGF supplemented with 100 ug/ml heparin. Groups consisted of 3 animals for control and sonepcizumab treatment. Animals were treated with the saline or sonepcizumab (10 mg/kg) 1 day prior to the implantation of GFR Matrigel and doses were administrated i.p. every 72 hrs for the duration of the experiment. After 12 days animals were sacrificed; the plugs were excised and immediately fixed in zinc and formalin-free fixative overnight, embedded in paraffin and sectioned (5 um). Paraffin-embedded sections were then stained for CD31 (Pharmingen). Images (9 images per section, 3 sections per plug) were taken by digital camera at 20× magnification and the CD31 positive staining was then quantified by PhotoShop 6.0 program and expressed as angiogenesis score (pixel^2) by ImageJ.

[4] = system: retinal neovascularization; assay: Murine model of retinopathy of prematurity: retinal neovascularization; assay type: in vivo, C57BL/6 mice; details: 5.0 μg/eye intravitreal
Description: C57BL/6 mice (n=7) were placed in 75% oxygen at day 7 of life and at day 12 of life were returned to room air and given an intraocular injection of 5 μg of sonepcizumab in one eye and vehicle in the contralateral eye. At day 17, the mice received an intraocular injection of anti-PECAM antibody labeled with FITC and after 8 hours, mice were euthanized and eyes were removed and fixed in PBS-buffered formalin at room temperature for 5 hours. Retinas were dissected and washed with phosphate-buffered saline containing 0.25% Triton X-100 and whole mounted. Slides were viewed with a Nikon Fluorescence Microscope and the area of retinal NV per retina was measured by image analysis.

HUVECs = assay: HUVEC tube formation on GF-reduced Matrigel; assay type: cell-based, human; details: co-incubated with S1P
Description: FIG. 5 has two panels, A and B. In panel A, S1P is shown to promote neovascularization through induction of HUVECs tube formation and migration, which is reduced by SPHINGOMAB. […] The number of cells that migrated to the Matrigel membrane were counted in five independent fields.
Experiments were performed as described by Visentin et al. (Cancer Cell 2006 March; 9(3):225-38).

[5] = 0.5 ug intravitreal, Day 0 and Day 6

| Molecule | inhibition of neovascularization (CNV area/volume), qualitative (CNV lesions [1]; [5]) | Percent inhibition of lesion size (CNV lesions [1]; [5]) | inhibition compared to non-specific antibody control (CNV lesions [1]; p<0.05) | maximal inhibition of CNV area (CNV lesions [2]; 5 μg/eye single intravitreal, 14 days) | reduction in CNV lesion size greater than that observed with the VEGF-Trap (CNV lesions [2]; comparison of two independent studies, VEGF-Trap 4.92 μg/eye (Saishin et al.)) | prevention of VEGF-stimulated increase in cellularity and microvessel density [3] | reduction in retinal neovascularization compared to saline control [4] | formation of capillary-like structures (HUVECs) |
| --- | --- | --- | --- | --- | --- | --- | --- | --- |
| LT1009: humanized anti-S1P IgG1/kappa mAb with Cys to Ala in HCDR2, light chain with 5 backmutations; SEQ ID NO: 31/32 | markedly suppressed neovascularization | ~99% | significant inhibition | approximately 50% | 20 percentage points | ~80% | ~4 fold |  |
| B1 |  | approximately 80% |  |  |  |  |  | failed to form capillary-like structures |
